# Measurements taken from ChEMBL document CHEMBL3885881, “DrugMatrix”.
# Organism: Rattus norvegicus
# Test: DrugMatrix - Regimen: Daily Repeat
# Type: toxicity, organism-based, Sprague-Dawley
# Design: regimen Daily Repeat, gender Male, age 6-8 weeks
# Details: in vivo, po, route oral GAVAGE, vehicle .5 % CMC; for ABSOLUTE BASOPHIL / ABSOLUTE EOSINOPHIL / ABSOLUTE LYMPHOCYTE / ABSOLUTE MONOCYTE / ABSOLUTE SEGMENTED NEUTROPHIL / BASOPHIL / EOSINOPHIL / ERYTHROCYTE COUNT / HEMATOCRIT / HEMOGLOBIN / LEUKOCYTE COUNT / LYMPHOCYTE / MEAN CORPUSCULAR HEMOGLOBIN / MEAN CORPUSCULAR HEMOGLOBIN CONCENTRATION / MEAN CORPUSCULAR VOLUME / MONOCYTE / NEUTROPHIL / NUCLEATED RED BLOOD CELLS / PLATELET COUNT: tissue Blood; for ALANINE AMINOTRANSFERASE / ALBUMIN / ALKALINE PHOSPHATASE / ASPARTATE AMINOTRANSFERASE / BLOOD UREA NITROGEN / CARBON DIOXIDE / CHLORIDE / CHOLESTEROL / CREATINE PHOSPHOKINASE / CREATININE / GLUCOSE / LACTATE DEHYDROGENASE / LIPASE / PHOSPHORUS / POTASSIUM / SODIUM / TOTAL BILIRUBIN / TOTAL PROTEIN: tissue Plasma
# [1] = 0 mg/kg, 72 h, dose level Control, time 3 day
# [2] = 0 mg/kg, 120 h, dose level Control, time 5 day
# [3] = 25 mg/kg, 72 h, dose level Low, time 3 day
compound,measurement,setting,value
COc1cc(/C=C/C(=O)O)ccc1O [FERULATE],ABSOLUTE BASOPHIL,[1],0 CELLS/uL
same,ABSOLUTE EOSINOPHIL,[1],284.5 CELLS/uL
same,ABSOLUTE LYMPHOCYTE,[1],11670.5 CELLS/uL
same,ABSOLUTE MONOCYTE,[1],420.83 CELLS/uL
same,ABSOLUTE SEGMENTED NEUTROPHIL,[1],1024.17 CELLS/uL
same,BASOPHIL,[1],0%
same,EOSINOPHIL,[1],1.67%
same,ERYTHROCYTE COUNT,[1],5.38 x10E6/uL
same,HEMATOCRIT,[1],34.05%
same,HEMOGLOBIN,[1],12.75 G/DL
same,LEUKOCYTE COUNT,[1],13.4 x10E3/uL
same,LYMPHOCYTE,[1],88.33%
same,MEAN CORPUSCULAR HEMOGLOBIN,[1],23.73 pg
same,MEAN CORPUSCULAR HEMOGLOBIN CONCENTRATION,[1],37.43 G/DL
same,MEAN CORPUSCULAR VOLUME,[1],63.4 fL
same,MONOCYTE,[1],2.83%
same,NEUTROPHIL,[1],7.17%
same,NUCLEATED RED BLOOD CELLS,[1],0 /100WBC
same,PLATELET COUNT,[1],1184.67 x10E3/uL
same,ALANINE AMINOTRANSFERASE,[1],45.33 u/L
same,ALBUMIN,[1],4.3 G/DL
same,ALKALINE PHOSPHATASE,[1],388.83 u/L
same,ASPARTATE AMINOTRANSFERASE,[1],84.83 u/L
same,BLOOD UREA NITROGEN,[1],15.5 mg/dL
same,CARBON DIOXIDE,[1],27 mmol/L
same,CHLORIDE,[1],101.8 MEQ/L
same,CHOLESTEROL,[1],76.67 mg/dL
same,CREATINE PHOSPHOKINASE,[1],301 u/L
same,CREATININE,[1],0.21 mg/dL
same,GLUCOSE,[1],168.83 mg/dL
same,LACTATE DEHYDROGENASE,[1],294.83 u/L
same,LIPASE,[1],9.8 u/L
same,PHOSPHORUS,[1],13.25 mg/dL
same,POTASSIUM,[1],6.41 MEQ/L
same,SODIUM,[1],143.72 MEQ/L
same,TOTAL BILIRUBIN,[1],0.22 mg/dL
same,TOTAL PROTEIN,[1],5.98 G/DL
same,ABSOLUTE BASOPHIL,[2],0 CELLS/uL
same,ABSOLUTE EOSINOPHIL,[2],190.67 CELLS/uL
same,ABSOLUTE LYMPHOCYTE,[2],12549.5 CELLS/uL
same,ABSOLUTE MONOCYTE,[2],276 CELLS/uL
same,ABSOLUTE SEGMENTED NEUTROPHIL,[2],1067.17 CELLS/uL
same,BASOPHIL,[2],0%
same,EOSINOPHIL,[2],1.33%
same,ERYTHROCYTE COUNT,[2],5.66 x10E6/uL
same,HEMATOCRIT,[2],35.92%
same,HEMOGLOBIN,[2],13.65 G/DL
same,LEUKOCYTE COUNT,[2],14.08 x10E3/uL
same,LYMPHOCYTE,[2],89%
same,MEAN CORPUSCULAR HEMOGLOBIN,[2],24.12 pg
same,MEAN CORPUSCULAR HEMOGLOBIN CONCENTRATION,[2],38.03 G/DL
same,MEAN CORPUSCULAR VOLUME,[2],63.47 fL
same,MONOCYTE,[2],2%
same,NEUTROPHIL,[2],7.67%
same,NUCLEATED RED BLOOD CELLS,[2],0.17 /100WBC
same,PLATELET COUNT,[2],1251.67 x10E3/uL
same,ALANINE AMINOTRANSFERASE,[2],43.33 u/L
same,ALBUMIN,[2],4.22 G/DL
same,ALKALINE PHOSPHATASE,[2],365.67 u/L
same,ASPARTATE AMINOTRANSFERASE,[2],83.67 u/L
same,BLOOD UREA NITROGEN,[2],18.17 mg/dL
same,CARBON DIOXIDE,[2],28.67 mmol/L
same,CHLORIDE,[2],103.5 MEQ/L
same,CHOLESTEROL,[2],71.5 mg/dL
same,CREATINE PHOSPHOKINASE,[2],284.5 u/L
same,CREATININE,[2],0.21 mg/dL
same,GLUCOSE,[2],161.67 mg/dL
same,LACTATE DEHYDROGENASE,[2],259.67 u/L
same,LIPASE,[2],9.5 u/L
same,PHOSPHORUS,[2],12.45 mg/dL
same,POTASSIUM,[2],6.49 MEQ/L
same,SODIUM,[2],144.25 MEQ/L
same,TOTAL BILIRUBIN,[2],0.2 mg/dL
same,TOTAL PROTEIN,[2],6.1 G/DL
same,ABSOLUTE BASOPHIL,[3],0 CELLS/uL
same,ABSOLUTE EOSINOPHIL,[3],47 CELLS/uL
same,ABSOLUTE LYMPHOCYTE,[3],6476.33 CELLS/uL
same,ABSOLUTE MONOCYTE,[3],108 CELLS/uL
same,ABSOLUTE SEGMENTED NEUTROPHIL,[3],402 CELLS/uL
same,BASOPHIL,[3],0%
same,EOSINOPHIL,[3],1%
same,ERYTHROCYTE COUNT,[3],5.55 x10E6/uL
same,HEMATOCRIT,[3],35.4%
same,HEMOGLOBIN,[3],13.17 G/DL
same,LEUKOCYTE COUNT,[3],7.03 x10E3/uL
same,LYMPHOCYTE,[3],91.67%
same,MEAN CORPUSCULAR HEMOGLOBIN,[3],23.73 pg
same,MEAN CORPUSCULAR HEMOGLOBIN CONCENTRATION,[3],37.2 G/DL
same,MEAN CORPUSCULAR VOLUME,[3],63.8 fL
same,MONOCYTE,[3],1.67%
same,NEUTROPHIL,[3],5.67%
same,NUCLEATED RED BLOOD CELLS,[3],0 /100WBC
same,PLATELET COUNT,[3],1224.33 x10E3/uL
same,ALANINE AMINOTRANSFERASE,[3],45.33 u/L
same,ALBUMIN,[3],4.27 G/DL
same,ALKALINE PHOSPHATASE,[3],484.33 u/L
same,ASPARTATE AMINOTRANSFERASE,[3],84.67 u/L
same,BLOOD UREA NITROGEN,[3],13.67 mg/dL
same,CARBON DIOXIDE,[3],28 mmol/L
same,CHLORIDE,[3],103 MEQ/L
same,CHOLESTEROL,[3],71 mg/dL
same,CREATINE PHOSPHOKINASE,[3],192.33 u/L
same,CREATININE,[3],0.18 mg/dL
same,GLUCOSE,[3],148.33 mg/dL
same,LACTATE DEHYDROGENASE,[3],120.67 u/L
same,LIPASE,[3],9.33 u/L
same,PHOSPHORUS,[3],12.27 mg/dL
same,POTASSIUM,[3],6.28 MEQ/L
same,SODIUM,[3],147.37 MEQ/L
same,TOTAL BILIRUBIN,[3],0.2 mg/dL
